“And” between values parts separate entries of the source, which are not always exact repeats. Equal values may be shown once. Read-outs that look alike come from different tables or passages of the source. Marks after values point to notes of the source that are not given here.
Legend:
Peronospora parasitica = assay: In vivo test on Peronospora parasitica (crucifer downy mildew); conditions: dose of 500 ppm; cabbage plants; grading 5 days after contamination
Protocol: In Vivo Test on Peronospora parasitica (Crucifer Downy Mildew)
The active ingredients tested are prepared by homogenization in a mixture of acetone/Tween/DMSO, then diluted with water to obtain the desired active material concentration.
Cabbage plants (Eminence variety) in starter cups, sown on a 50/50 peat soil-pozzolana substrate and grown at 18-20° C., are treated at the cotyledon stage by spraying with the aqueous suspension described above.
(§1) Plants, used as controls, are treated with an aqueous solution not containing the active material.
After 24 hours, the plants are contaminated by spraying them with an aqueous suspension of Peronospora parasitica spores (50 000 spores per ml). The spores are collected from infected plant.
The contaminated cabbage plants are incubated for 5 days at 20° C., under a humid atmosphere.
Grading is carried out 5 days after the contamination, in comparison with the control plants.

[1] = for logP value of the minor isomer (in parenthesis in column Isomer ratio [d]): main value of the example measured by method [b]
Botrytis cinerea = assay: In vivo test on Botrytis cinerea (grey mould); conditions: dose of 500 ppm; gherkin plants; grading 5/7 days after contamination
Protocol: In Vivo Test on Botrytis cinerea (Grey Mould)
The active ingredients tested are prepared by homogenization in a mixture of acetone/Tween/DMSO, then diluted with water to obtain the desired active material
Gherkin plants (Vert petit de Paris variety), sown on a 50/50 peat soil-pozzolana substrate in starter cups and grown at 18-20° C., are treated at the cotyledon Z11 stage by spraying with the active ingredient prepared as described above.
as §1
After 24 hours, the plants are contaminated by depositing drops of an aqueous suspension of Botrytis cinerea spores (150,000 spores per ml) on upper surface of the leaves. The spores are collected from a 15-day-old culture and are suspended in a nutrient solution composed of: • 20 g/L of gelatine; • 50 g/L of D-fructose; • 2 g/L of NH4NO3; • 1 g/L of KH2PO4.
The contaminated cucumber plants are settled for 5/7 days in a climatic room at 15-11° C. (day/night) and at 80% relative humidity.
Grading is carried out 5/7 days after the contamination, in comparison with the control plants.

Sphaerotheca fuliginea = assay: In vivo test on Sphaerotheca fuliginea (cucurbits powdery mildew); conditions: dose of 500 ppm; gherkin plants; grading 12 days after contamination
Protocol: In Vivo Test on Sphaerotheca fuliginea (Cucurbits Powdery Mildew)
(§2) The active ingredients tested are prepared by homogenization in a mixture of acetone/tween/DMSO, then diluted with water to obtain the desired active material.
Gherkin plants (Vert petit de Paris variety) in starter cups, sown on a 50/50 peat soil-pozzolana substrate and grown at 20° C./23° C., are treated at the cotyledon Z10 stage by spraying with the aqueous suspension described above. Plants, used as controls, are treated with an aqueous solution not containing the active material.
After 24 hours, the plants are contaminated by spraying them with an aqueous suspension of Sphaerotheca fuliginea spores (100 000 spores per ml). The spores are collected from a contaminated plants. The contaminated gherkin plants are incubated at about 20° C./25° C. and at 60/70% relative humidity.
Grading (% of efficacy) is carried out 12 days after the contamination, in comparison with the control plants.

Puccinia recondita = assay: In vivo test on Puccinia recondita (brown rust); conditions: dose of 500 ppm; wheat plants; grading 10 days after contamination
Protocol: In Vivo Test on Puccinia recondita (Brown Rust)
as §2
Wheat plants (Scipion variety) sown on 50/50 peat soil-pozzolana substrate in starter cups and grown at 12° C., are treated at the 1-leaf stage (10 cm tall) by spraying with the aqueous suspension described above.
as §1
After 24 hours, the plants are contaminated by spraying the leaves with an aqueous suspension of Puccinia recondita spores (100,000 spores per ml). The spores are collected from a 10-day-old contaminated wheat and are suspended in water containing 2.5 ml/l of tween 80 10%. The contaminated wheat plants are incubated for 24 hours at 20° C. and at 100% relative humidity, and then for 10 days at 20° C. and at 70% relative humidity.
Grading is carried out 10 days after the contamination, in comparison with the control plants.

[2] = logP by HPLC at pH 2.3 (0.1% phosphoric acid / acetonitrile); assay type: physicochemical; conditions: method [a]: pH 2.3 with 0.1% phosphoric acid and acetonitrile as eluent
[3] = tested on: Mycosphaerella graminicola; assay: In vivo test on Mycosphaerella graminicola (wheat leaf spot); conditions: dose of 500 ppm; wheat plants; grading 21 to 28 days after contamination
Protocol: In Vivo Test on Mycosphaerella graminicola (Wheat Leaf Spot)
The active ingredients tested are prepared by homogenization in a mixture of acetone/tween/DMSO, then diluted with water to obtain the desired active material concentration.
Wheat plants (Scipion variety), sown on a 50/50 peat soil-pozzolana substrate in starter cups and grown at 12° C., are treated at the 1-leaf stage (10 cm tall) by spraying with the aqueous suspension described above. Plants, used as controls, are treated with an aqueous solution not containing the active material.
After 24 hours, the plants are contaminated by spraying them with an aqueous suspension of Mycosphaerella graminicola spores (500 000 spores per ml). The spores are collected from a 7-day-old culture. The contaminated wheat plants are incubated for 72 hours at 18° C. and at 100% relative humidity, and then for 21 to 28 days at 90% relative humidity.
Grading (% of efficacy) is carried out 21 to 28 days after the contamination, in comparison with the control plants.

Fusarium proliferatum = assay: Production of fumonisin FB1 by Fusarium proliferatum (microtiter plate, HPLC-MS/MS and OD620); assay type: cell-based
Alternaria solani = assay: Alternaria test (tomato) / protective; assay type: in vivo; conditions: 500 ppm active compound, protective spray, evaluated 7 days after inoculation
Procedure, shortened: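 Young tomato plants sprayed protectively with compound formulated in DMF with alkylaryl polyglycol ether emulsifier and diluted in water to the application rate. After inoculation, plants held at 96% rel. humidity and 20° C. Efficacy scored 7 days post-inoculation: 0% equals untreated control, 100% no infection.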

Fusarium graminearum = assay type: cell-based; conditions: 50 μM
Pyrenophora teres = assay: In vivo test on Pyrenophora teres (barley net blotch); conditions: dose of 500 ppm; barley plants; grading 12 days after contamination
Procedure, shortened: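 Barley plants (Plaisant) grown at 12° C. sprayed at 1-leaf stage with compound in acetone/Tween/DMSO diluted in water; 24 h later inoculated with P. teres spores (12,000 spores/ml). Incubated 24 h at ~20° C., 100% RH, then 12 days at 80% RH; graded 12 days post-inoculation against untreated controls.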

In the case of `CC(C)C(C)n1ncc(-c2ccncc2)c1-c1ccc(Cl)s1` (stereo not shown) [Example 20], the protection (Peronospora parasitica) is reported as “at least 70%” and the log p ([1]; pH 2.7) is reported as 2.1^[b].
For `FCCn1cc(-c2ccncc2)c(-c2ccc(Cl)s2)n1` [Example 62], the protection (Peronospora parasitica) was 89%, the protection (Botrytis cinerea) was 98% and the “protection (% of efficacy)” value (Sphaerotheca fuliginea) was 94%. The protection (Puccinia recondita) was 88%, the “logP value of the minor isomer (in parenthesis in column Isomer ratio [d])” value ([1]; pH 2.7) was “(1.25)” and the log p ([1]; pH 2.7) was 1.39^[b].
For `CC(C)Cn1cc(-c2ccnc(NC(=O)OC(C)C)c2)c(-c2ccc(Cl)s2)n1` [Example 319], the log p [2] was 5.15^[a].
In the case of `Clc1ccc(-c2n[nH]cc2-c2ccncn2)s1` [Example 3], the “protection (% of efficacy)” value [3] is reported as 86%, the “% inhibition FB1 production at 50 μM” value (Fusarium proliferatum; 5 days at 20° C., HPLC-MS/MS) is reported as 99% and the “% inhibition fungal growth at 50 μM” value (Fusarium proliferatum; Fusarium proliferatum, OD620 at start and after 5 days) is reported as 46%. The log p ([1]; pH 2.3) was 1.82^[a]; and the log p ([1]; pH 2.7) was 1.74^[b].
With `CCOC(=O)Cn1cc(-c2ccncc2)c(-c2ccc(Cl)s2)n1` [Example 63] the protection (Peronospora parasitica) was 94%, the “protection (% of efficacy)” value (Sphaerotheca fuliginea) was 88% and the log p ([1]; pH 2.7) was 1.67^[b].
With `COCC(=O)Nc1cc(-c2cn(CC(C)C)nc2-c2ccc(Cl)s2)ccn1` [Example 360] the efficacy (Alternaria solani) was 78%, the “% Inhibition of fungal growth at 50 μM” value (Fusarium graminearum) was 12% and the “% Inhibition of DON/AcDON at 50 μM” value (Fusarium graminearum; 7 days at 28° C.) was 100%. The log p [2] was 3.78^[a].
In the case of `CC(C)Cn1cc(-c2ccnc(NC(=O)c3cccs3)c2)c(-c2ccc(Cl)s2)n1` [Example 320], the log p [2] is reported as 4.62^[a].
With `CCC(C)n1cc(-c2cc[n+]([O-])cc2)c(-c2ccc(Cl)s2)n1` (stereo not shown) [Example 92] the “protection (% of efficacy)” value (Sphaerotheca fuliginea) was 100% and the log p ([1]; pH 2.7) was 2.56^[b].
With `CC(C)Cn1cc(-c2ccnc(NC(=O)C3CCC3)c2)c(-c2ccc(Cl)s2)n1` [Example 361] the efficacy (Alternaria solani) was 94% and the log p [2] was 3.96^[a].
In the case of `ClCCn1cc(-c2ccncc2)c(-c2ccc(Cl)s2)n1` [Example 55], the protection (Botrytis cinerea) is reported as 75%, the protection (Pyrenophora teres) is reported as 80% and the “logP value of the minor isomer (in parenthesis in column Isomer ratio [d])” value ([1]; pH 2.7) is reported as “(1.50)”. For the same molecule, the log p ([1]; pH 2.7) was 1.65^[b].
For `Clc1ccc(-c2nn(CC3CCCO3)cc2-c2ccncc2)s1` (stereo not shown) [Example 56], the “protection (% of efficacy)” value (Sphaerotheca fuliginea) was 88%, the “logP value of the minor isomer (in parenthesis in column Isomer ratio [d])” value ([1]; pH 2.7) was “(1.44)” and the log p ([1]; pH 2.7) was 1.6^[b].
For `Clc1ccc(-c2nn(C3CC3)cc2-c2ccncc2)s1` [Example 66], the “protection (% of efficacy)” value (Sphaerotheca fuliginea) was 95%, the protection (Pyrenophora teres) was 92% and the protection (Puccinia recondita) was 89% and 95%. For the same molecule, the log p ([1]; pH 2.7) was 1.62^[b].
With `Clc1ccc(-c2nn(C3CCCCO3)cc2-c2ccncc2)s1` (stereo not shown) [Example 45] the “protection (% of efficacy)” value [3] was 71% and the log p ([1]; pH 2.7) was 1.91^[b].
In the case of `Clc1ccc(-c2nn(CCN3CCOCC3)cc2-c2ccncc2)s1` [Example 60], the protection (Peronospora parasitica) is reported as 98%, the “protection (% of efficacy)” value (Sphaerotheca fuliginea) is reported as 75% and the log p ([1]; pH 2.7) is reported as 0.52^[b].
For `CC(C)CCn1cc(-c2ccncc2)c(-c2ccc(Cl)s2)n1` [Example 17], the protection (Pyrenophora teres) was 100%, the protection (Puccinia recondita) was 70% and the “protection (% of efficacy)” value [3] was 70%. The log p ([1]; pH 2.7) was 2.45^[b].
